pIC50: −log10 of the molar value.
How the values were obtained:
Format in all cases: biochemical
PIP4K2B = target: T1, PIP4K2B (Homo sapiens, UniProt P78356); test: Trans-FI P kinase assay PIP4K2B (Table 4); conditions: compounds listed under IC50 bins; read-out: Trans-FI P kinase assays: PIP4K2B IC50
T1 construct: made in house; host or cells: E. coli
T1 sequence (P78356 1-416): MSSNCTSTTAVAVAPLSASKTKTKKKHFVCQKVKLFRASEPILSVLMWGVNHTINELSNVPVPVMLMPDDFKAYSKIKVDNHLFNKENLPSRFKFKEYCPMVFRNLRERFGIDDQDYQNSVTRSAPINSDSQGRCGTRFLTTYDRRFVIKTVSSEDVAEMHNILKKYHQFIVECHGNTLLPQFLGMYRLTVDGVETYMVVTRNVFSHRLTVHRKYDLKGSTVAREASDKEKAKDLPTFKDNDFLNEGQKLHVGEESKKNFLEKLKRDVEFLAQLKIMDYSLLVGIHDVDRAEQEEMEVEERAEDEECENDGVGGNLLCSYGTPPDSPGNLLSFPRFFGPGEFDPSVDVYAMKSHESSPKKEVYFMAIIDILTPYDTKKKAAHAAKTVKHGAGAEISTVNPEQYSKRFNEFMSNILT
Summary of the method: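 Transcreener FI detection (Ex 584/Em 623) of GDP, converted via calibration curve, gives IC50 from residual activity versus log concentration (highest 4.8 μM). Reaction: 80 μM PI5P plus DOPE carrier, 100 μM GTP, 5 nM GST-tagged enzyme, pH 7.3 HEPES with MgCl2 and 5% DMSO, 2 h after 1 h enzyme-compound preincubation at 27° C.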

PIP4K2A [1] = target: T2, PIP4K2A (Homo sapiens, UniProt P48426); test: ADP-glo kinase assay PIP4K 2A (Table 3); design: made in house; host or cells: E. coli; conditions: compounds listed under IC50 bins
T2 sequence (P48426 1-406): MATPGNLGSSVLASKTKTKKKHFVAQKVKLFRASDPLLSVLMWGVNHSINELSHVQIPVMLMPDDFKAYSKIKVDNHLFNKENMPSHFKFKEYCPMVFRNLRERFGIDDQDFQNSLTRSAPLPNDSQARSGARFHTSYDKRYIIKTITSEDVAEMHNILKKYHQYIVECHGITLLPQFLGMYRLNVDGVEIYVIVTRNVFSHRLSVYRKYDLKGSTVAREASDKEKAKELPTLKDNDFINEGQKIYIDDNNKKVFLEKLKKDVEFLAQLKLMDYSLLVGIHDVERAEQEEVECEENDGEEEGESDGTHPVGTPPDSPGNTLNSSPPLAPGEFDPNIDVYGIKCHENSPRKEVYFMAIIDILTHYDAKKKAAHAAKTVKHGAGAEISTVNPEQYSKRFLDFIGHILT
Summary of the method: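 Full-length PIP4K2A (4 nM in the mix) with 100 μM PI(5)P diC8 pre-incubated 15 min with compound in MOPS pH 7.2, 25 mM MgCl2; ATP added (60 μM solution), 1 h at RT. ADP formed read by ADP-Glo luminescence; 10-point curves versus DMSO controls fitted to IC50.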

PIP4K2A [2] = target: T2, PIP4K2A; test: Kinase Assay PIP4K2 A (Table 2); design: 4 nM PIP4K2A (full length protein, SignalChem); purchased SignalChem; conditions: compounds listed under IC50 bins
Summary of the method: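 Full-length PIP4K2A (4 nM in the added mix, with 100 μM PI(5)P diC8) pre-incubated 15 min at RT with compounds (10-point, 3-fold series) in 20 mM MOPS pH 7.2, 25 mM MgCl2, 0.005% Tween 20. ATP added from a 60 μM solution, 1 h at RT; ADP-Glo luminescence, IC50 fitted from % inhibition versus DMSO.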

SMILES | pIC50 (PIP4K2B) | pIC50 (PIP4K2A [1]) | pIC50 (PIP4K2A [2])
CN(C)C/C=C/C(=O)Nc1ccc(C(=O)Nc2cncc(Nc3ccc(-c4ccc(C(=O)N(C)C)cc4)cn3)c2)cc1 [Example 117, (E)-4-(6-((5-(4-(4-(dimethylamino)but-2-enamido)benzamido)pyridin-3-yl)amino)pyridin-3-yl)-N,N-dimethylbenzamide] | 7.00 to 8.00 | 7.00 to 8.00 | 8.00 to 9.00
CN(C)C(=O)c1cccc2ncc(Nc3ccc(-c4ccc(N5CCCC5=O)cc4)cn3)cc12 [Example 147, N,N-dimethyl-3-((5-(4-(2-oxopyrrolidin-1-yl)phenyl)pyridin-2-yl)amino)quinoline-5-carboxamide] | < 6.00 | 6.00 to 7.00 | 6.00 to 7.00
CN(C)C/C=C/C(=O)Nc1cccc(C(=O)NCc2ccc(Nc3ccc(-c4ccc(C(=O)N(C)C)cc4)cn3)cn2)c1 [Example 106, (E)-4-(6-((6-((3-(4-(dimethylamino)but-2-enamido)benzamido)methyl)pyridin-3-yl)amino)pyridin-3-yl)-N,N-dimethylbenzamide] | 7.00 to 8.00 | 6.00 to 7.00 | 6.00 to 7.00
CN(C)C(=O)c1ccc(-c2ccc(Nc3cncc(NC(=O)c4ccc(F)cc4)c3)nc2)cc1 [Example 139, 4-(6-((5-(4-fluorobenzamido)pyridin-3-yl)amino)pyridin-3-yl)-N,N-dimethylbenzamide] | 7.00 to 8.00 | 7.00 to 8.00 | 7.00 to 8.00
CN(Cc1cncs1)C(=O)c1ccc(-c2ccc(Nc3cccnc3)nc2)cc1 [Example 71, N-methyl-4-(6-(pyridin-3-ylamino)pyridin-3-yl)-N-(thiazol-5-ylmethyl)benzamide] | < 6.00 | < 6.00 | < 6.00
CN(C)C/C=C/C(=O)NCCCCCC(=O)Nc1cccc(CCC(=O)Nc2cncc(Nc3ccc(-c4ccc(C(=O)N(C)C)cc4)cn3)c2)c1 [Example 112, (E)-4-(6-((5-(3-(3-(6-(4-(dimethylamino)but-2-enamido)hexanamido)phenyl)propanamido)pyridin-3-yl)amino)pyridin-3-yl)-N,N-dimethylbenzamide] | < 6.00 | 6.00 to 7.00 | 6.00 to 7.00
CN(C)C(=O)c1ccc(-c2ccc(Nc3cncc(NC(=O)c4cccc5[nH]ccc45)c3)nc2)cc1 [Example 143, N-(5-((5-(4-(dimethylcarbamoyl)phenyl)pyridin-2-yl)amino)pyridin-3-yl)-1H-indole-4-carboxamide] | 7.00 to 8.00 | 7.00 to 8.00 | 8.00 to 9.00
CN(C)C/C=C/C(=O)Nc1cccc(CCC(=O)Nc2cncc(Nc3ccc(-c4ccc(C(=O)N(C)C)cc4)cn3)c2)c1 [Example 103, (E)-4-(6-((5-(3-(3-(4-(dimethylamino)but-2-enamido)phenyl)propanamido)pyridin-3-yl)amino)pyridin-3-yl)-N,N-dimethylbenzamide] | 7.00 to 8.00 | 7.00 to 8.00 | 8.00 to 9.00
CN(C)C/C=C/C(=O)N1CCC(C(=O)Nc2cccc(CCC(=O)Nc3cncc(Nc4ccc(-c5ccc(C(=O)N(C)C)cc5)cn4)c3)c2)CC1 [Example 110, (E)-1-(4-(dimethylamino)but-2-enoyl)-N-(3-(3-((5-((5-(4-(dimethylcarbamoyl)phenyl)pyridin-2-yl)amino)pyridin-3-yl)amino)-3-oxopropyl)phenyl)piperidine-4-carboxamide] | < 6.00 | 6.00 to 7.00 | 6.00 to 7.00
O=C1CCCN1c1ccc(-c2ccc(Nc3cnc4c(c3)OCCO4)nc2)cc1 [Example 87, 1-(4-(6-((2,3-dihydro-[1,4]dioxino[2,3-b]pyridin-7-yl)amino)pyridin-3-yl)phenyl)pyrrolidin-2-one] | 7.00 to 8.00 | 6.00 to 7.00 | 7.00 to 8.00
CN(C)C(=O)c1ccc(-c2ccc(Nc3cnc4c(c3)NCCO4)nc2)cc1 [Example 46, 4-(6-((2,3-dihydro-1H-pyrido[2,3-b][1,4]oxazin-7-yl)amino)pyridin-3-yl)-N,N-dimethylbenzamide] | 7.00 to 8.00 | 6.00 to 7.00 | 7.00 to 8.00
COc1cccc(C(=O)Nc2cncc(Nc3ccc(-c4ccc(C(=O)N(C)C)cc4)cn3)c2)c1 [Example 141, 4-(6-((5-(3-methoxybenzamido)pyridin-3-yl)amino)pyridin-3-yl)-N,N-dimethylbenzamide] | 7.00 to 8.00 | 7.00 to 8.00 | 8.00 to 9.00
CN(C)C(=O)c1ccc(-c2ccc(Nc3cncc(NC(=O)c4ccc5c(c4)COB5O)c3)nc2)cc1 [Example 132, N-(5-((5-(4-(dimethylcarbamoyl)phenyl)pyridin-2-yl)amino)pyridin-3-yl)-1-hydroxy-1,3-dihydrobenzo[c][1,2]oxaborole-5-carboxamide] | 7.00 to 8.00 | 7.00 to 8.00 | 8.00 to 9.00

Continued, values first:

pIC50 (PIP4K2B) | pIC50 (PIP4K2A [1]) | pIC50 (PIP4K2A [2]) | SMILES
7.00 to 8.00 | 6.00 to 7.00 | 6.00 to 7.00 | COc1ncc(Nc2ccc(-c3ccc(N4CCCC4=O)cc3)cn2)cc1NC(C)=O [Example 158, N-(2-methoxy-5-((5-(4-(2-oxopyrrolidin-1-yl)phenyl)pyridin-2-yl)amino)pyridin-3-yl)acetamide]
7.00 to 8.00 | 8.00 to 9.00 | 8.00 to 9.00 | COC(=O)N1CCOc2ncc(Nc3ccc(-c4ccc(N5CCCC5=O)cc4)cn3)cc21 [Example 151, methyl 7-((5-(4-(2-oxopyrrolidin-1-yl)phenyl)pyridin-2-yl)amino)-2,3-dihydro-1H-pyrido[2,3-b][1,4]oxazine-1-carboxylate]
7.00 to 8.00 | 7.00 to 8.00 | 8.00 to 9.00 | CN1CCN(c2cncc(Nc3ccc(-c4ccc(N5CCCC5=O)cc4)cn3)c2)S1(=O)=O [Example 174, 1-(4-(6-((5-(5-methyl-1,1-dioxido-1,2,5-thiadiazolidin-2-yl)pyridin-3-yl)amino)pyridin-3-yl)phenyl)pyrrolidin-2-one]
7.00 to 8.00 | 6.00 to 7.00 | 6.00 to 7.00 | COc1ncc(Nc2ccc(-c3ccc(N4CCCC4=O)cc3)cn2)cc1N(C)S(C)(=O)=O [Example 161, N-(2-methoxy-5-((5-(4-(2-oxopyrrolidin-1-yl)phenyl)pyridin-2-yl)amino)pyridin-3-yl)-N-methylmethanesulfonamide]
7.00 to 8.00 | 6.00 to 7.00 | 7.00 to 8.00 | O=C(Nc1cncc(Nc2ccc(-c3ccc(N4CCCC4=O)cc3)cn2)c1)c1ccc(=O)[nH]c1 [Example 240, 6-oxo-N-(5-((5-(4-(2-oxopyrrolidin-1-yl)phenyl)pyridin-2-yl)amino)pyridin-3-yl)-1,6-dihydropyridine-3-carboxamide]
7.00 to 8.00 | 7.00 to 8.00 | 7.00 to 8.00 | Cc1cc(N2CCCC2=O)ccc1-c1ccc(Nc2cnc3c(c2)N2C(=O)CC[C@H]2CO3)nc1 [Example 192, (S)-2-((5-(2-methyl-4-(2-oxopyrrolidin-1-yl)phenyl)pyridin-2-yl)amino)-6,6a,7,8-tetrahydro-9H-pyrido[2,3-b]pyrrolo[1,2-d][1,4]oxazin-9-one]
7.00 to 8.00 | 7.00 to 8.00 | 8.00 to 9.00 | O=C1CCCN1c1ccc(-c2ccc(Nc3cnc4c(c3)N(C(=O)CO)CCO4)nc2)cc1 [Example 235, 1-(4-(6-((1-(2-hydroxyacetyl)-2,3-dihydro-1H-pyrido[2,3-b][1,4]oxazin-7-yl)amino)pyridin-3-yl)phenyl)pyrrolidin-2-one]
